From US8952150B2, “Prostaglandin transporter inhibitors and uses thereof” (Albert Einstein College of Medicine of Yeshiva University, priority 2009, dated 2015)
pIC50: −log10 of the molar value.

Experiments:
full-thickness wounds = assay: Wound healing: topical application to full-thickness wounds on the back of mice; assay type: in vivo; details: 5 mm full-thickness wounds
Experimental: FIG. 1A-1B. Prostaglandin transporter (PGT) inhibitors accelerate wound healing. […] B. Averaged wound areas of 4 mice, each of them had 2 wounds and received topically applied vehicle Veh1 (2% DMSO+2% cremophor in water) on one wound and T26A on the other. On the wounds of a separate group of 4 mice, vehicle Veh2 (2% EtOH) was applied to one wound and 200 μM PGE2 was applied to the other.
Studies were conducted using compound T26A (Table 1). Two full-thickness wounds with diameter of 5 mm were created on the back of mice symmetrically under the shoulder blades. 50 μL vehicle (2% DMSO+2% cremophor in water) was applied to one wound (FIG. 1A, top panel), and that of 2 mM T26A was applied to the other (FIG. 1A, bottom panel), immediately after surgery and every other day afterwards. […] On the wounds of a separate group of 4 mice, vehicle Veh2 (2% EtOH, yellow) was applied to one wound and 200 μM PGE2 (green) was applied to the other. Results were statistically significant (p<0.05, T26A vs. vehicle).

rat PGT = rat PGT (Rattus norvegicus (Rat), UniProt Q00910); assay: [3H]PGE2 uptake inhibition in MDCK cells stably transfected with rat PGT (percent inhibition and IC50); assay type: cell-based; details: for Inh (% of Ctl) 0.5 μM: 0.5 μM compound; for Inh (% of Ctl) 0.5 μM / Inh (% of Ctl) 0.1 μM / Inh (% of Ctl) 1 μM: inhibition of [3H]PGE2 uptake; for pIC50: [3H]PGE2 uptake, MDCK cells stably transfected with rat PGT; for Inh (% of Ctl) 0.1 μM: 0.1 μM compound; for Inh (% of Ctl) 1 μM: 1 μM compound
Outline: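 Rat PGT-transfected MDCK cells, on day 4 after seeding, took up [3H]PGE2 in Waymouth buffer at room temperature, with compound (EtOH stock diluted in buffer) added immediately before tracer. Intracellular radioactivity counted after lysis; percent inhibition versus vehicle, IC50 by fitting y=m1−m1*(m0/(m2+m0)).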

| SMILES | Inh (% of Ctl) 0.5 μM (rat PGT) | pIC50 (rat PGT) | Inh (% of Ctl) 0.1 μM (rat PGT) | Inh (% of Ctl) 1 μM (rat PGT) | vascularization and blood flow in the wound (full-thickness wounds; 2 mM T26A applied topically) | wound healing (wound area) (full-thickness wounds; 50 μL of 2 mM T26A topically immediately after surgery and every other day, 10 day period, vs vehicle (2% DMSO+2% cremophor in water), p<0.05 T26A vs. vehicle) |
| --- | --- | --- | --- | --- | --- | --- |
| [N-]=[N+]=NCCOCCOCCNC(=O)c1ccc(Nc2nc(NCCOCCOCCNC(=O)c3ccccc3)nc(Nc3ccc(O)cc3)n2)cc1 [T26A, reference compound] | 72.65 % of Ctl | 6.42 |  |  | increased vascularization and blood flow in the wound | accelerates wound healing |
| O=C(NCc1ccccc1)c1ccc(Nc2nc(NCCOCCNS(=O)(=O)c3ccccc3)nc(Nc3ccc(O)cc3)n2)cc1 [compound 138] | 22.5 % of Ctl |  | 17.8 % of Ctl | 34.5 % of Ctl |  |  |
| O=C(NCc1ccccc1)c1ccc(Nc2nc(NCCOCCNCc3ccccc3)nc(Nc3ccc(O)cc3)n2)cc1 [compound 141] | 22.0 % of Ctl |  | 12.7 % of Ctl | 43.5 % of Ctl |  |  |
| O=C(NCc1ccc(F)cc1)c1ccc(Nc2nc(Nc3ccc(O)cc3)nc(Nc3ccc(O)cc3)n2)cc1 [compound 145] | 3.1 % of Ctl |  | 7.1 % of Ctl | 6.9 % of Ctl |  |  |
| O=C(NCc1ccc(F)cc1)c1ccc(Nc2nc(Nc3ccc(O)cc3)nc(Nc3ccc(C(=O)NCc4ccc(F)cc4)cc3)n2)cc1 [compound 148] | 12.9 % of Ctl |  | 8.4 % of Ctl | 20.7 % of Ctl |  |  |
| O=C(NCc1ccc(F)cc1)c1ccc(Nc2nc(Nc3ccc(O)cc3)nc(Nc3ccc(CNCc4ccccc4)cc3)n2)cc1 [compound 149] | 9.1 % of Ctl |  | 3.8 % of Ctl | 17.6 % of Ctl |  |  |
| O=C(NCCOCCOCCNc1nc(NCCOCCOCCNC(=O)c2ccccc2)nc(Nc2ccc(O)cc2)n1)c1ccccc1 [compound 151] | 0.7 % of Ctl |  |  | 8.4 % of Ctl |  |  |

Further lines, with some results ahead:

| Inh (% of Ctl) 0.5 μM (rat PGT) | pIC50 (rat PGT) | Inh (% of Ctl) 0.1 μM (rat PGT) | Inh (% of Ctl) 1 μM (rat PGT) | SMILES | vascularization and blood flow in the wound (full-thickness wounds; 2 mM T26A applied topically) | wound healing (wound area) (full-thickness wounds; 50 μL of 2 mM T26A topically immediately after surgery and every other day, 10 day period, vs vehicle (2% DMSO+2% cremophor in water), p<0.05 T26A vs. vehicle) |
| --- | --- | --- | --- | --- | --- | --- |
| 30.7 % of Ctl |  | 16.3 % of Ctl | 39.0 % of Ctl | O=C(NCCOCCNc1nc(Nc2ccc(O)cc2)nc(Nc2ccc(C(=O)NCc3ccccc3)cc2)n1)Nc1ccccc1 [compound 139] |  |  |
| 4.5 % of Ctl |  | 11.5 % of Ctl | 10.9 % of Ctl | CC(=O)NCCOCCNc1nc(Nc2ccc(O)cc2)nc(Nc2ccc(C(=O)NCc3ccccc3)cc2)n1 [compound 140] |  |  |
| 20.1 % of Ctl |  | 8.4 % of Ctl | 39.2 % of Ctl | O=C(NCCOCCOCCNc1nc(Nc2ccc(C(=O)NCc3ccc(F)cc3)cc2)nc(Nc2ccc3[nH]cnc3c2)n1)c1ccccc1 [compound 142] |  |  |
| 57.8 % of Ctl | 7.78 | 33.7 % of Ctl | 69.5 % of Ctl | O=C(NCCOCCOCCNc1nc(Nc2ccc(C(=O)NCc3ccc(F)cc3)cc2)nc(Nc2ccc(O)c(F)c2)n1)c1ccccc1 [compound 143] |  |  |
| 5.8 % of Ctl |  | 3.4 % of Ctl | 10.8 % of Ctl | COC(=O)c1cc(Nc2nc(NCCOCCOCCNC(=O)c3ccccc3)nc(Nc3ccc(C(=O)NCc4ccc(F)cc4)cc3)n2)ccc1O [compound 144] |  |  |
| 59.8 % of Ctl | 7.35 | 28.5 % of Ctl | 70.4 % of Ctl | O=C(NCCOCCOCCNc1nc(Nc2ccc(C(=O)NCc3ccc(F)cc3)cc2)nc(Nc2ccc(O)c(C(=O)O)c2)n1)c1ccccc1 [compound 146] |  |  |
| 70.2 % of Ctl | 7.50 | 44.5 % of Ctl | 79.5 % of Ctl | O=C(NCCOCCNc1nc(Nc2ccc(O)cc2)nc(Nc2ccc(C(=O)NCc3ccc(F)cc3)cc2)n1)c1ccccc1 [compound 147] |  |  |
| 14.3 % of Ctl |  | 4.2 % of Ctl | 23.9 % of Ctl | O=C(O)c1cccc(Nc2nc(NCCOCCOCCNC(=O)c3ccccc3)nc(Nc3ccc(C(=O)NCc4ccc(F)cc4)cc3)n2)c1 [compound 150] |  |  |
